Data set [1] relates to cell line ET (luc-ubi-neo/ET), Huh7 human hepatoma cell line.
Data set [2] concerns HCV 1b replicon. Kind of data set: Secondary HCV antiviral assay: qRT-PCR. It counts as cell-based. (In qPCR the cycle at which signal appears reflects the starting amount.)
The nature of data set [3]: Metabolic stability assay. It counts as in vitro ADME, human.
The subject of data set [4] is cell line ET (luc-ubi-neo/ET), Huh7 human hepatoma cell line. Kind of data set: Cytotoxicity in secondary assay. The settings on record: cellular ribosomal RNA as cytotoxicity control.
For data set [5] the following is noted: cited from earlier work.
A short description of data set [6]: in vitro. The settings on record: human.
The nature of data set [7]: Cytotoxicity in secondary assay. As to conditions: human.
Setting [8] is: qRT-PCR (TaqMan) of HCV RNA, single assay, quadruplicate wells.
[9] abbreviates: human liver microsomes, 0.1 µM, NADPH-regenerating system, 37 °C, mean of two independent experiments.

Like-named read-outs stand apart in the source and are kept apart here.

`C[C@@]1(O)[C@H](O)[C@@H](CO)O[C@H]1n1ccc(=O)[nH]c1=O` [2’-C-Me-uridine, reference compound] came in with a CC50 in data set [1] of over 100 µM.

For the compound `COC(=O)CC[C@H](NP(=O)(OC[C@H]1O[C@@H](n2ccc(=O)[nH]c2=O)[C@](C)(O)[C@@H]1O)Oc1ccccc1)C(=O)OC` (stereo partly drawn) [31a, 2′-C-Methyl-uridine-5′-[phenylbis(methoxy-L-glutamyl)]phosphate], the CC50 in data set [1] was over 20 µM.

Consider `CC(C)CCOC(=O)CC[C@H](NP(=O)(OC[C@H]1O[C@@H](n2ccc(=O)[nH]c2=O)[C@](C)(O)[C@@H]1O)Oc1ccccc1)C(=O)OCCC(C)C` (stereo partly drawn) [31b, 2′-C-Methyl-uridine-5′-[phenylbis(isoamyl-L-glutamyl)]phosphate], for which, in data set [2] (setting [8]), the EC50 (usually the concentration needed to bring the measured effect to its halfway point) came to 0.01 µM and the EC90 (usually the concentration needed for an effect of 90%) was determined as 0.13 µM. In data set [3] (human, microsomes), this compound yielded a Clint of 844.60 µl/min/mg protein and a T1/2 of 8 min. Further, the CC50 in data set [1] is over 20 µM. In data set [4], this compound gave a CC50 of 9.98 µM.

Compound `COC(=O)[C@H](COCc1ccccc1)NP(=O)(OC[C@H]1O[C@@H](n2ccc(=O)[nH]c2=O)[C@](C)(O)[C@@H]1O)Oc1ccccc1` (stereo partly drawn) [31c, 2′-C-Methyl-uridine-5′-[phenyl(α-methoxy-β-O-benzyl-L-serine)]phosphate] displayed a CC50 in data set [1] of over 20 µM.

Regarding `CCCCCOC(=O)[C@H](COCc1ccccc1)NP(=O)(OC[C@H]1O[C@@H](n2ccc(=O)[nH]c2=O)[C@](C)(O)[C@@H]1O)Oc1ccccc1` (stereo partly drawn) [31d, 2′-C-Methyl-uridine-5′-[phenyl(α-amyl-β-O-benzyl-L-serine)]phosphate], in data set [3] (human, microsomes), the Clint was 496.80 µl/min/mg protein and the T1/2 stood at 14 min. Besides, the CC50 in data set [1] was found to be 5.89 µM.

In data set [2] (setting [8]), `CC(C)CCOC(=O)[C@H](COCc1ccccc1)NP(=O)(OC[C@H]1O[C@@H](n2ccc(=O)[nH]c2=O)[C@](C)(O)[C@@H]1O)Oc1ccccc1` (stereo partly drawn) [31e, 2′-C-Methyl-uridine-5′-[phenyl(α-isoamyl-β-O-benzyl-L-serine)]phosphate] returned an EC50 of 0.01 µM and a concentration for an effect of 90% (EC90) of 0.08 µM. The same compound had a CC50 in data set [1] of 8 µM. In data set [4], this compound registered a CC50 of 4.59 µM.

`COC(=O)[C@H](COC(=O)C(C)C)NP(=O)(OC[C@H]1O[C@@H](n2ccc(=O)[nH]c2=O)[C@](C)(O)[C@@H]1O)Oc1ccccc1` (stereo partly drawn) [31f, 2′-C-Methyl-uridine-5′-[phenyl(α-methoxy-β-O-isobutyryl-L-serine)]phosphate] displayed a CC50 in data set [1] of over 20 µM.

The compound `CCCCCOC(=O)[C@H](COC(=O)C(C)C)NP(=O)(OC[C@H]1O[C@@H](n2ccc(=O)[nH]c2=O)[C@](C)(O)[C@@H]1O)Oc1ccccc1` (stereo partly drawn) [31g, 2′-C-Methyl-uridine-5′-[phenyl(α-amyl-β-O-isobutyryl-L-serine)]phosphate] yielded a CC50 in data set [1] of 6.79 µM.

Turning to `CC(C)CCOC(=O)[C@H](COC(=O)C(C)C)NP(=O)(OC[C@H]1O[C@@H](n2ccc(=O)[nH]c2=O)[C@](C)(O)[C@@H]1O)Oc1ccccc1` (stereo partly drawn) [31h, 2′-C-Methyl-uridine-5′-[phenyl(α-isoamyl-β-O-isobutyryl-L-serine)]phosphate], in data set [2] (setting [8]), the EC50 is 0.02 µM and the EC90 stood at 0.13 µM. In data set [3] (human, microsomes), this compound had a Clint of 763.70 µl/min/mg protein and a T1/2 of 9 min. In addition, the CC50 in data set [1] was determined as 7.51 µM. In data set [4], this compound displayed a CC50 of 5.28 µM.

For `CC(C)CCOC(=O)[C@@H](NP(=O)(OC[C@H]1O[C@@H](n2ccc(=O)[nH]c2=O)[C@](C)(O)[C@@H]1O)Oc1ccccc1)[C@@H](C)OCc1ccccc1` (stereo partly drawn) [31i, 2′-C-Methyl-uridine-5′-[phenyl(isoamyl-O-benzyl-L-threonine)]phosphate], in data set [2] (setting [8]), the concentration giving a half-maximal response (EC50) came out at 0.04 µM and the 90% effect level (EC90) was put at 0.69 µM. In data set [3] (human, microsomes), this compound returned a Clint of 699.00 µl/min/mg protein and a T1/2 of 10 min. Moreover, the CC50 in data set [1] was over 20 µM. For the same compound, the CC50 in data set [4] turned out to be 7.27 µM.

Consider `CC(C)CCOC(=O)[C@@H](NP(=O)(OC[C@H]1O[C@@H](n2ccc(=O)[nH]c2=O)[C@](C)(O)[C@@H]1O)Oc1ccccc1)[C@@H](C)OC(=O)C(C)C` (stereo partly drawn) [31j, 2′-C-Methyl-uridine-5′-[phenyl(isoamyl-O-isobutyryl-L-threonine)]phosphate], for which the CC50 in data set [1] was determined as 11.5 µM.

In data set [2] (setting [8]), `CC(C)CCOC(=O)[C@H](Cc1ccc(OC(=O)C(C)C)cc1)NP(=O)(OCC1OC(n2ccc(=O)[nH]c2=O)C(C)(O)C1O)Oc1ccccc1` (stereo partly drawn) [31k, 2′-C-Methyl-uridine-5′-[phenyl(isoamyl-O-isobutyryl-L-tyrosine)]phosphate] gave an EC50 of 0.04 µM and an EC90 of 0.69 µM. In addition, in data set [3] (setting [9]), the Clint was determined as 679.60 µl/min/mg protein and the T1/2 was 10 min. The compound further had a CC50 in data set [1] (concentration decreasing cell viability by 50%, 72 hrs, CytoTox-ONE) of over 20 µM. The compound also gave a CC50 in data set [4] of 18.4 µM.

In data set [2] (Hepatitis C virus), `CC(C)OC(=O)[C@H](C)N[P@](=O)(OC[C@H]1O[C@@H](n2ccc(=O)[nH]c2=O)[C@](C)(F)[C@@H]1O)Oc1ccccc1` [Sofosbuvir, reference compound] had an EC50 of 0.07 µM and an EC90 of 0.28 µM. For the same compound, the “cytotoxicity (devoid up to)” value in data set [5] was over 100 µM. This compound also came in with a CC50 in data set [6] of over 5 µM. This compound showed a CC50 in data set [7] of over 5 µM.
